Data reported in ChEMBL document CHEMBL3727348, “3-(aryl or heteroaryl) methyleneindolin-2-one derivatives as inhibitors of cancer stem cell pathway kinases for the treatment of cancer” (2014).

Legend:
Format in all cases: functional, cell-based
FaDu [1] = experiment: Cytotoxic activity against human FADU cancer stem cells incubated for 72 hrs by Cell-titer-Glo luminescence assay
FaDu [2] = experiment: Cytotoxic activity against human FADU bulk cells incubated for 72 hrs by Cell-titer-Glo luminescence assay
ACHN [3] = experiment: Cytotoxic activity against human ACHN bulk cells incubated for 72 hrs by Cell-titer-Glo luminescence assay
ACHN [4] = experiment: Cytotoxic activity against human ACHN cancer stem cells incubated for 72 hrs by Cell-titer-Glo luminescence assay
A549 [5] = experiment: Cytotoxic activity against human A549 cancer stem cells incubated for 72 hrs by Cell-titer-Glo luminescence assay; details: A549, 72 h
A549 [6] = experiment: Cytotoxic activity against human A549 bulk cells incubated for 72 hrs by Cell-titer-Glo luminescence assay; details: A549, 72 h

SMILES	IC50 (FaDu [1])	IC50 (FaDu [2])	IC50 (ACHN [3])	IC50 (ACHN [4])	IC50 (A549 [5])	IC50 (A549 [6])
CCN(CC)CCNC(=O)c1c(C)[nH]c(/C=C2\C(=O)Nc3ccc(-c4nc5ccccc5s4)cc32)c1C	5.97 µM	4.93 µM	9.53 µM	0.98 µM	4.13 µM	3.73 µM
O=C1Nc2ccc(-c3csc(-c4ccccc4)n3)cc2/C1=C/c1cnc[nH]1	6.32 µM	6.14 µM	8.74 µM	–	0.9 µM	11.2 µM
CCN(CC)CCNC(=O)c1c(C)[nH]c(/C=C2\C(=O)Nc3ccc(-c4cnccn4)cc32)c1C	0.23 µM	6.62 µM	10.1 µM	2.65 µM	13.2 µM	10.6 µM
CCN(CC)CCNC(=O)c1c(C)[nH]c(/C=C2\C(=O)Nc3ccc(-c4nccc5ccccc45)cc32)c1C	0.03 µM	2.13 µM	5.05 µM	0.71 µM	13.9 µM	3.18 µM
CCN(CC)CCNC(=O)CCc1c(C)[nH]c(/C=C2\C(=O)Nc3ccc(-c4csc(-c5ccccc5)n4)cc32)c1C	3.53 µM	3.85 µM	2.48 µM	4.23 µM	8.74 µM	1.11 µM
CCN(CC)CCNC(=O)c1c(C)[nH]c(/C=C2\C(=O)Nc3ccc(-c4cccc(OC)n4)cc32)c1C	0.19 µM	1.76 µM	1.96 µM	0.24 µM	2.24 µM	2.79 µM
O=C1Nc2ccc(-c3csc(-c4ccccc4)n3)cc2/C1=C/c1cc2c([nH]1)CCCC2	4.09 µM	20.2 µM	34.6 µM	2.52 µM	1.42 µM	–
CCN(CC)CCNC(=O)c1c(C)[nH]c(/C=C2\C(=O)Nc3ccc(-c4cnsc4)cc32)c1C	3.42 µM	3.17 µM	4.58 µM	0.64 µM	6.66 µM	3.79 µM
Cc1cc(C)c(/C=C2\C(=O)Nc3ccc(-c4ncccn4)cc32)[nH]1	25.2 µM	26.1 µM	25.3 µM	–	28.7 µM	–
CCN(CC)CCNC(=O)c1c(C)[nH]c(/C=C2\C(=O)Nc3ccc(-c4cccc(C#N)c4C)cc32)c1C	4.73 µM	4.27 µM	5.23 µM	0.57 µM	4.48 µM	2.8 µM
CCN(CC)CCNC(=O)c1c(C)[nH]c(/C=C2\C(=O)Nc3ccc(-c4csc(C(=O)O)c4)cc32)c1C	14.1 µM	–	7.74 µM	1.28 µM	14.1 µM	7.79 µM
CCOC(=O)c1[nH]c(/C=C2\C(=O)Nc3ccc(-c4csc(-c5ccccc5)n4)cc32)c2c1CCCC2	2.91 µM	–	0.83 µM	1.6 µM	–	–
CCN(CC)CCNC(=O)c1c(C)[nH]c(/C=C2\C(=O)Nc3cc(-c4cnc5ccccc5c4)ccc32)c1C	2.83 µM	12.9 µM	–	1.07 µM	11.6 µM	15.8 µM
CCN(CC)CCNC(=O)c1c(C)[nH]c(/C=C2\C(=O)Nc3cc(-c4ccc5ccccc5n4)ccc32)c1C	5.15 µM	16.6 µM	–	1.36 µM	6.59 µM	16.4 µM
Cc1ccc(-c2ccc3c(c2)/C(=C/c2[nH]c(C)cc2C)C(=O)N3)cn1	–	–	24.9 µM	0.01 µM	–	25.8 µM
Cc1cc(C)c(/C=C2\C(=O)Nc3ccc(-c4cc(-c5ccccc5)ccn4)cc32)[nH]1	–	22.4 µM	–	–	35.7 µM	13.8 µM
CCOC(=O)c1cc(C)c(/C=C2\C(=O)Nc3ccc(-c4csc(-c5ccccc5)n4)cc32)[nH]1	–	13.5 µM	0.39 µM	–	13.2 µM	40 µM
Cc1cc(C)c(/C=C2\C(=O)Nc3ccc(-c4ncccc4C)cc32)[nH]1	41.1 µM	–	7.95 µM	0.01 µM	–	22.4 µM
CCN(CC)CCNC(=O)c1c(C)[nH]c(/C=C2\C(=O)Nc3ccc(-c4cnc(SC)cn4)cc32)c1C	–	5.96 µM	12.3 µM	–	30 µM	6.06 µM
Cc1cc(C)c(/C=C2\C(=O)Nc3ccc(-c4cnc5cccnn45)cc32)[nH]1	1.55 µM	5.23 µM	–	–	8.66 µM	12.5 µM
CCN(CC)CCNC(=O)c1c(C)[nH]c(/C=C2\C(=O)Nc3cc(-c4ccc(-c5ccccc5)nc4)ccc32)c1C	1.12 µM	–	–	0.21 µM	3.59 µM	14.8 µM
CCN(CC)CCNC(=O)c1c(C)[nH]c(/C=C2\C(=O)Nc3ccc(-c4csc(-c5ccc(C)cc5)n4)cc32)c1C	3.4 µM	–	–	0.69 µM	10.5 µM	–
CCN(CC)CCNC(=O)c1c(C)[nH]c(/C=C2\C(=O)Nc3ccc(-c4csc(C5CCNC5)n4)cc32)c1C (configuration not stated)	–	2.42 µM	6.75 µM	–	32.5 µM	0.72 µM
Cc1[nH]c(/C=C2\C(=O)Nc3ccc(-c4cnn(-c5ccccn5)c4)cc32)c(C)c1C(=O)N1CCN(C)CC1	0.24 µM	3.67 µM	–	–	11.7 µM	18.9 µM
CCN(CC)CCNC(=O)c1c(C)[nH]c(/C=C2\C(=O)Nc3ccc(-c4ccc5ccccc5n4)cc32)c1C	–	0.92 µM	2.74 µM	0.33 µM	1.51 µM	1.8 µM

SMILES	IC50 (FaDu [1])	IC50 (FaDu [2])	IC50 (ACHN [3])	IC50 (ACHN [4])	IC50 (A549 [5])	IC50 (A549 [6])
O=C1Nc2ccc(-c3csc(-c4ccncc4)n3)cc2/C1=C/c1ncc[nH]1	–	3.42 µM	0.29 µM	9.21 µM	2.6 µM	14.8 µM
CCN(CC)CCN1CCCc2[nH]c(/C=C3\C(=O)Nc4ccc(-c5csc(C6CCNCC6)n5)cc43)c(C)c2C1=O	–	8.67 µM	–	11.9 µM	–	7.06 µM
Cc1cc(C)c(/C=C2\C(=O)Nc3ccc(-c4cnsc4)cc32)[nH]1	43.4 µM	26.7 µM	42.8 µM	17.1 µM	–	–
Cc1ccc(-c2nc(-c3ccc4c(c3)/C(=C/c3[nH]c(C)c(C(=O)N5CCN(C)CC5)c3C)C(=O)N4)cs2)cc1	1.98 µM	7.87 µM	4.25 µM	–	0.45 µM	8.55 µM
Cc1[nH]c(/C=C2\C(=O)Nc3ccc(-c4csc(-c5ccccc5)n4)cc32)c(C)c1S(=O)(=O)N1CCCC1	6.56 µM	5.48 µM	12.6 µM	5.05 µM	–	2.86 µM
CCN(CC)CCNC(=O)c1c(C)[nH]c(/C=C2\C(=O)Nc3ccc(-c4n[nH]c5c(N)cccc45)cc32)c1C	28.4 µM	7.09 µM	12 µM	30.9 µM	–	11.6 µM
Cc1cc(C)c(/C=C2\C(=O)Nc3ccc(-c4cnc5ccccn45)cc32)[nH]1	17 µM	11.4 µM	25.2 µM	–	20.2 µM	16.6 µM
CCN(CC)CCNC(=O)c1c(C)[nH]c(/C=C2\C(=O)Nc3ccc(-c4cnc(-c5ccccc5)cn4)cc32)c1C	39.1 µM	17.5 µM	25.8 µM	–	43.6 µM	16.9 µM
Cc1cc(C)c(/C=C2\C(=O)Nc3cc(-c4cnc5ccccc5n4)ccc32)[nH]1	8.8 µM	–	–	2.54 µM	5.83 µM	18.2 µM
Cc1cc(C)c(/C=C2\C(=O)Nc3ccc(-c4ccccn4)cc32)[nH]1	–	–	–	0.02 µM	–	–
Cc1cc(C)c(/C=C2\C(=O)Nc3ccc(-c4cnc(-c5ccccc5)cn4)cc32)[nH]1	–	–	–	6.8 µM	–	–
CSc1cnc(-c2ccc3c(c2)/C(=C/c2[nH]c(C)cc2C)C(=O)N3)cn1	–	–	0.16 µM	18.3 µM	–	35.8 µM
Cc1ccc(-c2ccc3c(c2)NC(=O)/C3=C\c2[nH]c(C)cc2C)cn1	3.61 µM	–	22 µM	4.55 µM	23.7 µM	–
Cc1cc(C)c(/C=C2\C(=O)Nc3ccc(-c4ccncc4)cc32)[nH]1	–	–	–	6.95 µM	–	–
CCN(CC)CCNC(=O)c1c(C)[nH]c(/C=C2\C(=O)Nc3ccc(-c4csc(-c5ccc(CCC(=O)O)cc5)n4)cc32)c1C	4.88 µM	–	–	–	4.21 µM	–
CCN(CC)CCNC(=O)c1c(C)[nH]c(/C=C2\C(=O)Nc3cc(-c4csc(-c5ccccc5)n4)ccc32)c1C	0.6 µM	1.8 µM	–	0.19 µM	3.73 µM	–
CCN(CC)CCNC(=O)c1c(C)[nH]c(/C=C2\C(=O)Nc3ccc(-c4csc(-c5cccc(CCC(=O)O)c5)n4)cc32)c1C	4.88 µM	1.77 µM	1.27 µM	–	4.21 µM	–
Cc1ccc(-c2ccc3c(c2)/C(=C/c2[nH]c(C)cc2C)C(=O)N3)nc1	–	37.3 µM	–	0.05 µM	–	–
CCN(CC)CCNC(=O)c1c(C)[nH]c(/C=C2\C(=O)Nc3cc(-c4ccc(-c5ccccc5)cn4)ccc32)c1C	1.18 µM	19.8 µM	–	2.88 µM	4.93 µM	–
Cc1cc(C)c(/C=C2\C(=O)Nc3ccc(-c4csc(-n5cccn5)n4)cc32)[nH]1	27.2 µM	20.8 µM	9 µM	–	16.2 µM	9.76 µM
O=C1Nc2ccc(-c3csc(-c4ccncc4)n3)cc2/C1=C/c1cc2c([nH]1)CCCC2	–	–	37.8 µM	–	0.8 µM	–
Cc1[nH]c(/C=C2\C(=O)Nc3ccc(-c4cnn(-c5ccccc5)c4)cc32)c(C)c1C(=O)N1CCN(C)CC1	0.31 µM	3.62 µM	3.4 µM	–	4.49 µM	6.91 µM
O=C1Nc2ccc(-c3csc(-c4ccccc4)n3)cc2/C1=C/c1[nH]cc2ccccc12	5.04 µM	–	–	4.08 µM	–	–
CCN(CC)CCNC(=O)c1c(C)[nH]c(/C=C2\C(=O)Nc3cc(-c4nccc5ccccc45)ccc32)c1C	24.4 µM	9.12 µM	6.51 µM	1.91 µM	–	7.14 µM
Cc1cc(C)c(/C=C2\C(=O)Nc3ccc(-c4cccc5ncccc45)cc32)[nH]1	13.1 µM	13.4 µM	13.2 µM	–	40 µM	11.1 µM
